Columns and labels:
[1] = system: Bacillus atrophaeus subspecies globigii spores; assay: Assay to quantify spore kills, dry-prepared Bg spores (section 2); assay type: cell-based; settings: 0.5 M, 15 minutes at 25° C., FIG. 4
Bacillus cereus spores = assay: Assay to quantify spore kills, wet-prepared Bc spores (section 2); assay type: cell-based, B. cereus RSVF1, ATCC 4342; settings: FIG. 5
[2] = system: B. atrophaeus subspecies globigii spores; assay type: cell-based, Bacillus atrophaeus subspecies globigii; settings: 0.5 M in water
Description: Dry-prepared spores of non-pathogenic B. atrophaeus subspecies globigii (B. globigii or Bg) were prepared at the Army's Dugway Proving Ground to mimic a bio-weapon, and they are used for bio-weapons studies, including the following experiments. The assay for decontamination experiments was performed with 3-4 replicates and many experiments were reproduced numerous times. The assay included the steps of (1) suspending Bg spores in the appropriate solvent (water or ethanol) at a concentration of 2 mg spores/ml (approximately 2×10^8 spores/ml) with starting volume of over 1 ml of spores at 2 mg/ml; (2) removing 3 or 4 spore aliquots of 50 ul per aliquot with each aliquot serially diluted in 1x PBS and plated on Luria-Bertani (LB) or Tryptic Soy (TSA) agar plates (this is a control step that gave the spore titer or colony-forming units (CFUs) at Time=0 minutes (T0)); (3) placing the appropriate decontamination solution (2x concentration) aliquoted into each of 3 or 4 eppendorf tubes with 200 ul per tube and then 200 ul of spores were added and mixed to give a final concentration of 1x decontamination solution and 1 mg spores/ml; (4) the spores in decontamination solution were then mixed and incubated for specific time periods and temperatures. A typical incubation was in a room temperature (25° C.) water bath for 30 (or 60) minutes (no agitation was performed during the incubation period in order to mimic real world situations); (5) aliquots of spores from the 3 or 4 replicates were removed after 30 (or 60) minutes with the aliquots serially diluted in 1x PBS and plated on LB or TSA agar plates which gave a CFU at Time=30 minutes (T30) (the titer of live spores after the decontamination test); (6) after removing the aliquots at the 30-minute time point, some test samples were then immediately incubated in a 70° C. water bath for another 30 minutes, the samples were then serially diluted and plated on to LB agar plates to determine the titer after the 70° C. incubation.

[3] = 60 minutes at 25° C., ten out of the thirteen experiments
[4] = additional 30 minutes at 70° C., pH-neutralized to pH 7-8, all 11 experiments
[5] = 0.5 M in 50%, 75% and 90% ethanol, 15 minutes at 25° C.

O.O.[Ca+2].[Cl-].[Cl-] [Ca^+2, CaCl2-2H2O]
effect on Bg spores ([1]; regardless of the solvent (water, 25-90% ethanol)): no affect | effect on Bc spores (Bacillus cereus spores; 0.5 M in water, 25%, 50%, 75% or 90% ethanol, 15 minutes at 25° C.): no affect

[Cl][Cu][Cl] [Cu^+2, copper chloride]
log spore kill [2, 3]: > 1 log | spore kills [2, 3]: greater than 92% | kill of spores [2, 4]: 100% | logs of kill [2, 4]: > 7 logs | activity against Bg spores ([1]; in 50%, 75% and 90% ethanol): strongest activity | activity against Bc spores (Bacillus cereus spores; [5]): strong activity

O.O.O.O.O.O.[Cl-].[Cl-].[Cl-].[Fe+3] [Fe^+3, FeCl3·6H2O]
CFU reduction ([1]; in water and at any ethanol concentration): greater than three logs | CFU reduction (logs) (Bacillus cereus spores; [5]): greater than three logs | CFU reduction (percent) (Bacillus cereus spores; [5]): > 99.9% | CFU reduced relative to the control (Bacillus cereus spores; 0.5 M in water, within 15 minutes): less than half a log

[Cl-].[Cl-].[Zn+2] [Zn^+2, ZnCl2]
CFU reduction ([1]; in 50% ethanol): greater than two logs | activity against Bc spores (Bacillus cereus spores; 0.5 M in 50% and 75% ethanol, 15 minutes at 25° C.): slight activity
